Usually pIC50 stands for −log10 of the IC50, conventionally taken in molar units.

pIC50: −log10 of the molar value.

Sequence of human FXa (P00742 235-488 limits assumed): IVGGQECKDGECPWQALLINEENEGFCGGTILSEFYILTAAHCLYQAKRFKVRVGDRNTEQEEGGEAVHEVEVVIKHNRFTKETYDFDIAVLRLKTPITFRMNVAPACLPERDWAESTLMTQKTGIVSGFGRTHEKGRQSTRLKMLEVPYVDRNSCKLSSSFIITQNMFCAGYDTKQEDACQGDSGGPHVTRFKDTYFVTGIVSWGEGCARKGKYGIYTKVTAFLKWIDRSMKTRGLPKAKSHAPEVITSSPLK
Sequence of human FXa (P00742 41-179 partner limits assumed): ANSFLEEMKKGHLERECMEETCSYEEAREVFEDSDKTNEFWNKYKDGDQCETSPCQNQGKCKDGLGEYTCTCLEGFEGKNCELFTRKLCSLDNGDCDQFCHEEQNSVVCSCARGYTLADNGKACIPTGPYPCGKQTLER

This test has as its target human FXa (Homo sapiens, UniProt P00742). Description: Determination of inhibitory activity of activated blood coagulation factor X (FXa). As to conditions: substrate S-2765, Tris buffer pH 8.4, incubation 30 minutes, absorbance A405; read-out: FXa inhibitory activity, 50% inhibitory activity (IC50). In kind it is biochemical. Here is the method: A test substance was dissolved in water or water containing organic solvents (DMSO, ethanol or methanol) at a suitable concentration to provide a specimen. To 70 μl each of the resulting specimens serially diluted with water, were added 90 μl of a 100 mM Tris buffer (pH 8.4), 20 μl of a 50 mM Tris buffer (pH 8.4) containing 50 mU/ml human FXa and 2 mM of a substrate (S-2765 manufactured by Daiichi Pure Chemicals Co., Ltd.). Incubation was carried out for 30 minutes. To the incubated mixture, was then added 50 μl of a 50% acetic acid. The absorbance (A405) was determined. A mixture prepared by adding the Tris buffer instead of the FXa was used as a blank, and a mixture containing water instead of the specimen was used as a control. The 50% inhibitory activity (IC50) was determined as the indication of FXa inhibitory activity.
Consider `CC(C)N1CCC(COCc2cc(C(=O)O)cc(-c3cccc(C(=N)N)c3)c2)CC1`, for which the negative logarithm of the IC50 (pIC50) is 6.00 to 7.00.

Consider `COC(=O)c1cc(COCC2CCNCC2)cc(-c2cccc(C(=N)N)c2)c1` [Reference Example 3, methyl 3-(3-amidinophenyl)-5-[(4-piperidinyl)methoxymethyl]-5-benzoate], for which the negative logarithm of the IC50 (pIC50) was 6.00 to 7.00.

As for `COC(=O)c1cc(COCC2CCN(C(C)C)CC2)cc(-c2cccc(C(=N)N)c2)c1` [Reference Example 4, methyl 3-(3-amidinophenyl)-5-[(N-isopropyl-4-piperidinyl)methoxymethyl]-5-benzoate], the pIC50 was 6.00 to 7.00.

With `COC(=O)c1cc(COCC2CCN(C(C)=O)CC2)cc(-c2cccc(C(=N)N)c2)c1` [Reference Example 5, methyl 3-(3-amidinophenyl)-5-[(N-acetylpiperidin-4-yl)methoxymethyl]-5-benzoate], the pIC50 is 6.00 to 7.00.

Regarding `COC(=O)c1cc(CNCC2CCN(C(C)=N)CC2)cc(-c2cccc(C(=N)N)c2)c1` [Reference Example 6, methyl 3-(3-amidinophenyl)-5-[(((N-acetimidoylpiperidin-4-yl)methyl)amino)methyl]benzoate], the negative-log IC50 (pIC50) was 7.00 to 8.00.

For `COC(=O)c1cc(COCC2CCN(C(C)=N)CC2)cc(-c2cccc(C(=N)N)c2)c1` [Reference Example 7, methyl 3-(3-amidinophenyl)-5-[(1-acetimidoyl-4-piperidinyl)methoxymethyl]benzoate], the pIC50 was 7.00 to 8.00.

Source of the values: patent US6538137B1 (Teijin Limited, priority 1999, dated 2003).
